Test results: patent US20230021448A1, “COMPOUNDS AND COMPOSITIONS FOR TREATING CONDITIONS ASSOCIATED WITH STING ACTIVITY” (IFM Due, Inc., priority 2019, published 2023)
pEC50: −log10 of the molar value.

Biological target: T1, STING (Homo sapiens, UniProt Q86WV6, G230A/H232R/R293Q/R71H)
T1 construct: host or cells: THP1-Dual KO-IFNAR2 cells
Assay: STING reporter assay: luciferase reporter activity in THP1-Dual KO-IFNAR2 cells stimulated with 2'3'cGAMP
Type: cell-based
Settings: 2′3′cGAMP 15 μM final, 24h, read-out: hSTING: EC50
How it was run: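 THP1-Dual KO-IFNAR2 cells (2×10E6 cells/mL) incubated with compounds at 0.0017-100 μM final plus Lipofectamine-transfected 2′3′cGAMP (15 μM final), 24 h at 37 °C, 5% CO2. Luciferase in supernatant read by QUANTI-Luc luminescence; EC50 derived.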

T1 sequence (Q86WV6 whole entry R71H/G230A/H232R/R293Q): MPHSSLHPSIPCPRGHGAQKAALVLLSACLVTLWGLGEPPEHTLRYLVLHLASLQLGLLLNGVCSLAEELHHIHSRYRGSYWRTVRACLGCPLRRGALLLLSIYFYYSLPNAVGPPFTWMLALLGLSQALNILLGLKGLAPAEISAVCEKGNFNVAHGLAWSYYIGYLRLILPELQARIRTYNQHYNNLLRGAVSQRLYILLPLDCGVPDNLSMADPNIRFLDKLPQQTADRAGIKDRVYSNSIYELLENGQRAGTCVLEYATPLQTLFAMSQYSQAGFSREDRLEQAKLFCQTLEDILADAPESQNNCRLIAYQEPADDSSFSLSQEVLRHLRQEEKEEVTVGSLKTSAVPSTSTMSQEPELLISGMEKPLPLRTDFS

pEC50	SMILES
6.00 to 6.70	C[C@H](NC(=O)C(=O)Nc1c[nH]c2cc(F)c(F)cc12)c1ccc(C(F)(F)F)cn1 [Compound 298, N-(5,6-difluoro-1H-indol-3-yl)-N′-[(1S)-1-[5-(trifluoromethyl)pyridin-2-yl]ethyl]ethanediamide]
6.00 to 6.70	O=C(Nc1c[nH]c2cc(F)c(F)cc12)C(=O)NC1CCC2(CCCC2)C1 (single isomer, unassigned) [Compound 245]
